Assay results reported in US9115137B2, “2,3,4,5-tetrahydro-1H-pyrido[4,3-B]indole compounds and methods of use thereof” (priority 2008, dated 2015).

Tests used:
[1] = target: T1, human recombinant adrenergic α2A receptor (Homo sapiens, UniProt P08913); test: Adrenergic α2A radioligand binding ([3H]MK-912); conditions: compound at 1 μM; insect Sf9 cells; read-out: Adrenergic (1 μM) α2A, percent inhibition of specific binding
T1 construct: expressed in transfected cells; host or cells: insect Sf9 cells
T1 sequence (P08913 1-465): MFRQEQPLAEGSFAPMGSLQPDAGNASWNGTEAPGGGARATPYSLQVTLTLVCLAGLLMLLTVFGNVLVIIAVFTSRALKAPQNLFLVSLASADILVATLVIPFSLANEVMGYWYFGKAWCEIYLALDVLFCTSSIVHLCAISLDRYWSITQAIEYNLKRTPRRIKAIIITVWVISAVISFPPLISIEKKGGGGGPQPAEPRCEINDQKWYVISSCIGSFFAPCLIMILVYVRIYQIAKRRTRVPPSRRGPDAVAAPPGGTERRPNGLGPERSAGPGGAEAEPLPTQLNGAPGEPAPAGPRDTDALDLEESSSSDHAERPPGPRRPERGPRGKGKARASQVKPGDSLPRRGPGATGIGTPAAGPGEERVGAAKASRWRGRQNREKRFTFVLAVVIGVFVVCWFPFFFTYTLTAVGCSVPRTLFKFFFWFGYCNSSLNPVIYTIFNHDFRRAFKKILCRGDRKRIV
Description: To evaluate in radioligand binding assays the activity of compounds of the invention, human recombinant adrenergic α2A receptor expressed in insect Sf9 cells (Uhlen S et al. J Pharmacol Exp Ther. 271:1558, 1994) in a modified Tris-HCl buffer (50 mM Tris-HCl, pH 7.4, 12.5 mM MgCl2, 2 mM EDTA) was used. Compounds of invention were incubated with 1 nM [^3H]MK-912 for 60 minutes at 25° C. MK912 is (2S-trans)-1,3,4,5′,6,6′,7,12b-octahydro-1′,3′-dimethyl-spiro[2H-benzofuro[2,3-a]quinolizine-2,4′(1′H)-pyrimidin]-2′(3′H)-one hydrochloride Non-specific binding was estimated in the presence of 10 μM WB-4101 (2-(2,6-Dimethoxyphenoxyethyl)aminomethyl-1,4-benzodioxane hydrochloride). Receptor proteins were filtered and washed, the filters were then counted to determine [^3H]MK-912 specifically bound. Compounds were screened at 1 μM or lower, using 1% DMSO as vehicle. Biochemical assay results are presented as the percent inhibition of specific binding in Table 6.

[2] = target: T2, human recombinant dopamine D2L receptor (Homo sapiens, UniProt P14416); test: Dopamine D2L radioligand binding ([3H]Spiperone); conditions: compound at 1 μM; CHO cells; read-out: Dopamine (1 μM) D2L, percent inhibition of specific binding
T2 construct: expressed in transfected cells; host or cells: CHO cells
Description: To evaluate in radioligand binding assays the activity of compounds of the invention, human recombinant dopamine D2L receptor expressed in Chinese hamster ovary (CHO) cells (Grandy, D. K. et al. Proc. Natl. Acad. Sci. USA. 86:9762, 1989; Hayes, G. et al., Mol. Endocrinol. 6:920, 1992) in a modified Tris-HCl buffer (50 mM Tris-HCl, pH 7.4, 1.4 mM Ascorbic Acid, 0.001% BSA, 150 mM NaCl) was used. Compounds of the invention were incubated with 0.16 nM [^3H]Spiperone for 120 minutes at 25° C. Non-specific binding was estimated in the presence of 10 μM Haloperidol. Receptor proteins were filtered and washed, the filters were then counted to determine [^3H]Spiperone specifically bound. Compounds were screened at 1 μM or lower, using 1% DMSO as vehicle. Biochemical assay results are presented as the percent inhibition of specific binding in Table 6.

[3] = target: T3, human recombinant serotonin (5-Hydroxytryptamine) 5-HT2C receptor (Homo sapiens, UniProt P28335); test: Serotonin 5-HT2C radioligand binding ([3H]Mesulergine); conditions: compound at 1 μM; CHO-K1 cells; read-out: Serotonin (1 μM) 5-HT2C, percent inhibition of specific binding
T3 construct: expressed in transfected cells; host or cells: CHO-K1 cells
T3 sequence (P28335 33-458): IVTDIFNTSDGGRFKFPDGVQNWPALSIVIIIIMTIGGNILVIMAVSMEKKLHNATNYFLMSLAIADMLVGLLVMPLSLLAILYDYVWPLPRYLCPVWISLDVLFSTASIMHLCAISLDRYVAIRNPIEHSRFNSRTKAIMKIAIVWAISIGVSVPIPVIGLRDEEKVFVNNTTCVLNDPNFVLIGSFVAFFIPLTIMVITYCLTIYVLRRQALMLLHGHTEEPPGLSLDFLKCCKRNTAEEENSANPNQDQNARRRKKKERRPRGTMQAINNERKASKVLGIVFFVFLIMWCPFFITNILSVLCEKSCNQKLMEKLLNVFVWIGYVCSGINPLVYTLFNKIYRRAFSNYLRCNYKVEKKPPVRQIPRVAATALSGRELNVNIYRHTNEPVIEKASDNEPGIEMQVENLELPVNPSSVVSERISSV
Description: To evaluate in radioligand binding assays the activity of compounds of the invention, human recombinant serotonin (5-Hydroxytryptamine) 5-HT2C receptor expressed in Chinese hamster ovary (CHO-K1) cells (Wolf, W. A. and Schutz, J. S., J. Neurochem. 69:1449, 1997) in a modified Tris-HCl buffer (50 mM Tris-HCl, pH 7.4, 0.1% Ascorbic Acid, 10 μM Pargyline) was used. Compounds of the invention were incubated with 1 nM [^3H]Mesulergine for 60 minutes at 25° C. Non-specific binding was estimated in the presence of 1 μM Mianserin. Receptor proteins were filtered and washed, the filters were then counted to determine [^3H]Mesulergine specifically bound. Compounds were screened at 1 μM or lower, using 1% DMSO as vehicle. Biochemical assay results are presented as the percent inhibition of specific binding in Table 7.

T2 sequence (P14416 whole entry): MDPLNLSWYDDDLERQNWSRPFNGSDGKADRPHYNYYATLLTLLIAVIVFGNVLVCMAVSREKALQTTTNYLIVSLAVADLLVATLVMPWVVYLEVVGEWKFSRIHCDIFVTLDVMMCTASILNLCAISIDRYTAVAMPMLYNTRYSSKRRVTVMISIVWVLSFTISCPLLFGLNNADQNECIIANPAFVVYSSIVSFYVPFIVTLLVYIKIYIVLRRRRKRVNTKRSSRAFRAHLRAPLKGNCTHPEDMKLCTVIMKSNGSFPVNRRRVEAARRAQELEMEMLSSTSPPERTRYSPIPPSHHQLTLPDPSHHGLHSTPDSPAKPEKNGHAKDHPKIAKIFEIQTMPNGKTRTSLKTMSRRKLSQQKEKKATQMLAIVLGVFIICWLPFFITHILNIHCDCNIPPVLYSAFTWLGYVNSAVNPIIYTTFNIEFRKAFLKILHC

| Compound | inhibition at 1 µM [1] [%] | inhibition at 1 µM [2] [%] | inhibition at 1 µM [3] [%] |
| --- | --- | --- | --- |
| Cc1ccc2c(c1)c1c(n2CCNC(=O)C2CCCNC2)CCN(C)C1 (stereo not drawn) [Compound 9, N-(2-(1,2,3,4-tetrahydro-2,8-dimethylpyrido[4,3-b]indol-5-yl)ethyl)piperidine-3-carboxamide] | 20 | 2 | 29 |
| CCOC(=O)Cn1c2c(c3cc(Cl)ccc31)CN(C)CC2 [Compound 10, ethyl 2-(8-chloro-1,2,3,4-tetrahydro-2-methylpyrido[4,3-b]indol-5-yl)acetate] | 40 | 12 | 92 |
| CC(C)OC(=O)Cn1c2c(c3cc(Cl)ccc31)CN(C)CC2 [Compound 11, isopropyl 2-(8-chloro-1,2,3,4-tetrahydro-2-methylpyrido[4,3-b]indol-5-yl)acetate] | 25 | 10 | 71 |
| CN1CCc2c(c3cc(Cl)ccc3n2CC(=O)OC(C)(C)C)C1 [Compound 12, tert-butyl 2-(8-chloro-1,2,3,4-tetrahydro-2-methylpyrido[4,3-b]indol-5-yl)acetate] | 12 | 23 | 83 |
| CN1CCc2c(c3cc(Cl)ccc3n2CC(=O)OCc2ccccc2)C1 [Compound 13, benzyl 2-(8-chloro-1,2,3,4-tetrahydro-2-methylpyrido[4,3-b]indol-5-yl)acetate] | 73 | 38 | 91 |
| CN1CCc2c(c3cc(Cl)ccc3n2CC(=O)OCC2CCCCC2)C1 [Compound 14, cyclohexylmethyl 2-(8-chloro-1,2,3,4-tetrahydro-2-methylpyrido[4,3-b]indol-5-yl)acetate] | 79 | 31 | 94 |
| CN1CCc2c(c3cc(Cl)ccc3n2CC(=O)OC2CCCC2)C1 [Compound 15] | 67 | 26 | 94 |
| CC(C)OC(=O)CCn1c2c(c3cc(Cl)ccc31)CN(C)CC2 [Compound 17, isopropyl 3-(8-chloro-1,2,3,4-tetrahydro-2-methylpyrido[4,3-b]indol-5-yl)propanoate] | 90 | 13 | 91 |
| CN1CCc2c(c3cc(Cl)ccc3n2CCC(=O)OCc2ccccc2)C1 [Compound 19, benzyl 3-(8-chloro-1,2,3,4-tetrahydro-2-methylpyrido[4,3-b]indol-5-yl)propanoate] | 86 | 31 | 96 |
| CN1CCc2c(c3cc(Cl)ccc3n2CCC(=O)OCC2CCCCC2)C1 [Compound 20, cyclohexylmethyl 3-(8-chloro-1,2,3,4-tetrahydro-2-methylpyrido[4,3-b]indol-5-yl)propanoate] | 95 | 19 | 88 |
| CN1CCc2c(c3cc(Cl)ccc3n2CCC(=O)OC2CCCC2)C1 [Compound 21, cyclopentyl 3-(8-chloro-1,2,3,4-tetrahydro-2-methylpyrido[4,3-b]indol-5-yl)propanoate] | 95 | 35 | 100 |
| CCNC(=O)Cn1c2c(c3cc(C)ccc31)CN(C)CC2 [Compound 22, N-ethyl-2-(1,2,3,4-tetrahydro-2,8-dimethylpyrido[4,3-b]indol-5-yl)acetamide] | 40 | -2 | 81 |
| Cc1ccc2c(c1)c1c(n2CC(=O)NC(C)C)CCN(C)C1 [Compound 23, 2-(1,2,3,4-tetrahydro-2,8-dimethylpyrido[4,3-b]indol-5-yl)-N-isopropylacetamide] | 12 | 5 | 37 |
| Cc1ccc2c(c1)c1c(n2CC(=O)NC(C)(C)C)CCN(C)C1 [Compound 24, N-tert-butyl-2-(1,2,3,4-tetrahydro-2,8-dimethylpyrido[4,3-b]indol-5-yl)acetamide] | 10 | 3 | 21 |
| Cc1ccc2c(c1)c1c(n2CC(=O)NCc2ccccc2)CCN(C)C1 [Compound 25, N-benzyl-2-(1,2,3,4-tetrahydro-2,8-dimethylpyrido[4,3-b]indol-5-yl)acetamide] | 2 | -3 | 61 |
| Cc1ccc2c(c1)c1c(n2CC(=O)NCC2CCCCC2)CCN(C)C1 [Compound 26, N-(cyclohexylmethyl)-2-(1,2,3,4-tetrahydro-2,8-dimethylpyrido[4,3-b]indol-5-yl)acetamide] | 22 | -4 | 54 |
| CN1CCc2c(c3cc(Cl)ccc3n2CC(=O)NC2CCCC2)C1 [Compound 27, 2-(8-chloro-1,2,3,4-tetrahydro-2-methylpyrido[4,3-b]indol-5-yl)-N-cyclopentylacetamide] | 12 | -2 | 28 |
| Cc1ccc2c(c1)c1c(n2CCC(=O)NC(C)(C)C)CCN(C)C1 [Compound 28] | 44 | -1 | 35 |
| Cc1ccc2c(c1)c1c(n2CCC(=O)Nc2ccccc2)CCN(C)C1 [Compound 29] | 78 | 2 | 73 |
| Cc1ccc2c(c1)c1c(n2CCC(=O)NCC2CCCCC2)CCN(C)C1 [Compound 30, N-(cyclohexylmethyl)-3-(1,2,3,4-tetrahydro-2,8-dimethylpyrido[4,3-b]indol-5-yl)propanamide] | 74 | 7 | 93 |
| CN1CCc2c(c3cc(Cl)ccc3n2CCC(=O)NC2CCCC2)C1 [Compound 31, 3-(8-chloro-1,2,3,4-tetrahydro-2-methylpyrido[4,3-b]indol-5-yl)-N-cyclopentylpropanamide] | 37 | 9 | 76 |
| CN1CCc2c(c3cc(Cl)ccc3n2CC(N)=O)C1 [Compound 45, 2-(8-chloro-1,2,3,4-tetrahydro-2-methylpyrido[4,3-b]indol-5-yl)acetamide] | 16 | 7 | 52 |
